Assay results published in patent US20190328691A1, “ANTIBIOTIC THERAPY” (Boulos & Cooper Pharmaceuticals Pty Ltd, priority 2015, published 2019).
Read-outs that look alike come from different tables or passages of the source. Values belong to the compound of their own block, whether it stands above or below them.

Legend:
[1] = system: Staphylococcus aureus (ATCC 29213); assay: Checkerboard combination / MIC assay with S. aureus ATCC 29213; format: cell-based; conditions: S. aureus ATCC 29213; for MIC: Staphylococcus aureus, read-out: MIC of antibiotic alone; for mean FICI of combination with Chlopam / mean FICI of combination with Ramizol: mean of all pairwise combinations; for mean FICI of combination with Ramizol: labelled antibiotic + Ramizol
In short: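 CLSI broth microdilution checkerboard in CAMHB, final inoculum 5×10^5 CFU/mL, 2% DMSO. Ramizol or Chlopam (11-point 2-fold) crossed with commercial antibiotics (7-point), each starting at 4× MIC; synergy assessed by FIC index (sum of MIC-in-combination/MIC-alone ratios; ≤0.5 synergy, >4 antagonism).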

[2] = system: Staphylococcus aureus (BAA-1717); assay: Checkerboard combination / MIC assay with S. aureus BAA-1717 (MRSA); format: cell-based; conditions: for Effect of individual antibiotic combinations: S. aureus BAA-1717; for MIC: Staphylococcus aureus, ATCC BAA-1717 / BAA-1717, Table 4, checkerboard series with Chlopam, read-out: MIC of antibiotic alone; for mean FICI of combination with Chlopam: labelled antibiotic + Chlopam; for mean FICI of combination with Chlopam / mean FICI of combination with Ramizol: mean of all pairwise combinations; for mean FICI of combination with Ramizol: labelled antibiotic + Ramizol
In short: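 CLSI broth microdilution checkerboard in CAMHB (5×10^5 CFU/mL, 2% DMSO final). Ramizol or Chlopam was tested in 11-point two-fold series against 7-point antibiotic titrations, starting at 4× MIC.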

[3] = Chlopam 0.003906 μg/mL + labelled antibiotic at MIC of same cell
[4] = Chlopam 0.0078125 μg/mL + labelled antibiotic at MIC of same cell
[5] = Chlopam 0.015625 μg/mL + labelled antibiotic at MIC of same cell
[6] = Chlopam 0.25 μg/mL + labelled antibiotic at MIC of same cell
[7] = Ramizol 0.015625 μg/mL + labelled antibiotic at MIC of same cell
[8] = Ramizol 0.03125 μg/mL + labelled antibiotic at MIC of same cell
[9] = Ramizol 0.0625 μg/mL + labelled antibiotic at MIC of same cell
[10] = Ramizol 0.125 μg/mL + labelled antibiotic at MIC of same cell
[11] = Ramizol 0.25 μg/mL + labelled antibiotic at MIC of same cell
[12] = ATCC29213, Table 4, checkerboard series with Chlopam
[13] = ATCC29213, Table 7, checkerboard series with Ramizol
[14] = Chlopam 0.001953 μg/mL + labelled antibiotic at MIC of same cell, S. aureus ATCC BAA-1717
[15] = Chlopam 0.001953 μg/mL, S. aureus ATCC BAA-1717
[16] = Chlopam 0.003906 μg/mL + labelled antibiotic at MIC of same cell, S. aureus ATCC BAA-1717
[17] = Chlopam 0.003906 μg/mL, S. aureus ATCC BAA-1717
[18] = Chlopam 0.0078125 μg/mL + labelled antibiotic at MIC of same cell, S. aureus ATCC BAA-1717
[19] = Chlopam 0.0078125 μg/mL, S. aureus ATCC BAA-1717
[20] = Chlopam 0.015625 μg/mL + labelled antibiotic at MIC of same cell, S. aureus ATCC BAA-1717
[21] = Chlopam 0.015625 μg/mL, S. aureus ATCC BAA-1717
[22] = Ramizol 0.015625 μg/mL + labelled antibiotic at MIC of same cell, S. aureus ATCC BAA-1717
[23] = Ramizol 0.015625 μg/mL, S. aureus ATCC BAA-1717
[24] = Ramizol 0.03125 μg/mL + labelled antibiotic at MIC of same cell, S. aureus ATCC BAA-1717
[25] = Ramizol 0.03125 μg/mL, S. aureus ATCC BAA-1717
[26] = Ramizol 0.0625 μg/mL + labelled antibiotic at MIC of same cell, S. aureus ATCC BAA-1717
[27] = Ramizol 0.0625 μg/mL, S. aureus ATCC BAA-1717
[28] = Ramizol 0.125 μg/mL + labelled antibiotic at MIC of same line, S. aureus ATCC BAA-1717
[29] = Ramizol 0.125 μg/mL, S. aureus ATCC BAA-1717

- MIC of antibiotic in combination with Chlopam ([1]; Chlopam 0.003906 μg/mL): 0.5 µg/mL
- MIC of antibiotic in combination with Chlopam ([1]; Chlopam 0.0078125 μg/mL): 0.5 µg/mL
- MIC of antibiotic in combination with Chlopam ([1]; Chlopam 0.015625 μg/mL): 0.5 µg/mL
- MIC of antibiotic in combination with Chlopam ([1]; Chlopam 0.25 μg/mL): 0.25 µg/mL
- MIC of antibiotic in combination with Ramizol ([1]; Ramizol 0.015625 μg/mL): 0.5 µg/mL
- MIC of antibiotic in combination with Ramizol ([1]; Ramizol 0.03125 μg/mL): 0.5 µg/mL
- MIC of antibiotic in combination with Ramizol ([1]; Ramizol 0.0625 μg/mL): 0.5 µg/mL
- MIC of antibiotic in combination with Ramizol ([1]; Ramizol 0.125 μg/mL): 0.5 µg/mL
- MIC of antibiotic in combination with Ramizol ([1]; Ramizol 0.25 μg/mL): 0.5 µg/mL
- MIC [1, 12]: 0.5 µg/mL
- MIC [1, 13]: 0.5 µg/mL
- MIC of antibiotic in combination with Chlopam [2, 15]: 0.5 µg/mL
- MIC of antibiotic in combination with Chlopam [2, 17]: 0.5 µg/mL
- MIC of antibiotic in combination with Chlopam [2, 19]: 0.5 µg/mL
- MIC of antibiotic in combination with Chlopam [2, 21]: 0.5 µg/mL
- MIC of antibiotic in combination with Chlopam ([2]; Chlopam 0.5 μg/mL, S. aureus ATCC BAA-1717): 0.016 µg/mL
- MIC of antibiotic in combination with Ramizol [2, 23]: 0.5 µg/mL
- MIC of antibiotic in combination with Ramizol [2, 25]: 0.5 µg/mL
- MIC of antibiotic in combination with Ramizol [2, 27]: 0.5 µg/mL
- MIC of antibiotic in combination with Ramizol [2, 29]: 0.5 µg/mL
- MIC of antibiotic in combination with Ramizol ([2]; Ramizol 4 μg/mL, S. aureus ATCC BAA-1717): 0.016 µg/mL
- MIC ([2]; S. aureus ATCC BAA-1717): 0.5 µg/mL
SMILES: C/C(=C\C(=O)OCCCCCCCCC(=O)O)C[C@@H]1OC[C@H](C[C@@H]2O[C@H]2[C@@H](C)[C@H](C)O)[C@@H](O)[C@H]1O [Mupirocin]
- FICI of combination with Chlopam [1, 3]: 1.0
- FICI of combination with Chlopam [1, 4]: 1.0
- FICI of combination with Chlopam [1, 5]: 1.0
- FICI of combination with Chlopam [1, 6]: 1.0
- Effect of individual antibiotic combinations ([1]; Chlopam and mupirocin: 0.003901 and 0.5, 0.0078125 and 0.5, 0.015625 and 0.5, 0.25 and 0.25 μg/mL): additive effect
- FICI of combination with Ramizol [1, 7]: 1.0
- FICI of combination with Ramizol [1, 8]: 1.0
- FICI of combination with Ramizol [1, 9]: 1.0
- FICI of combination with Ramizol [1, 10]: 1.0
- FICI of combination with Ramizol [1, 11]: 1.0
- Effect of individual antibiotic combinations ([1]; Ramizol and mupirocin: 0.015625 and 0.5, 0.03125 and 0.5, 0.0625 and 0.5, 0.125 and 0.5, 0.25 and 0.5 μg/mL): additive effect
- mean FICI of combination with Chlopam ([1]; labelled antibiotic + Chlopam): 1.1
- mean FICI of combination with Ramizol [1]: 1.1
- FICI of combination with Chlopam [2, 14]: 1.0
- FICI of combination with Chlopam [2, 16]: 1.0
- FICI of combination with Chlopam [2, 18]: 1.0
- FICI of combination with Chlopam [2, 20]: 1.0
- FICI of combination with Chlopam ([2]; Chlopam 0.5 μg/mL + labelled antibiotic at MIC of same line, S. aureus ATCC BAA-1717): 1.0
- Effect of individual antibiotic combinations ([2]; Chlopam and mupirocin: 0.001953 and 0.5, 0.003901 and 0.5, 0.0078125 and 0.5, 0.015625 and 0.5, 0.5 and 0.016 μg/mL): additive effect
- FICI of combination with Ramizol [2, 22]: 1.0
- FICI of combination with Ramizol [2, 24]: 1.0
- FICI of combination with Ramizol [2, 26]: 1.0
- FICI of combination with Ramizol [2, 28]: 1.0
- FICI of combination with Ramizol ([2]; Ramizol 4 μg/mL + labelled antibiotic at MIC of same cell, S. aureus ATCC BAA-1717): 1.0
- Effect of individual antibiotic combinations ([2]; Ramizol and mupirocin: 0.015625 and 0.5, 0.03125 and 0.5, 0.0625 and 0.5, 0.125 and 0.5, 4 and 0.016 μg/mL): additive effect
- mean FICI of combination with Chlopam ([2]; S. aureus ATCC BAA-1717): 1.2
- mean FICI of combination with Ramizol ([2]; S. aureus ATCC BAA-1717): (1.2)

- MIC of antibiotic in combination with Chlopam ([1]; Chlopam 0.003906 μg/mL): 2 µg/mL
- MIC of antibiotic in combination with Chlopam ([1]; Chlopam 0.0078125 μg/mL): 2 µg/mL
- MIC of antibiotic in combination with Chlopam ([1]; Chlopam 0.015625 μg/mL): 2 µg/mL
- MIC of antibiotic in combination with Chlopam ([1]; Chlopam 0.125 μg/mL): 1 µg/mL
- MIC of antibiotic in combination with Chlopam ([1]; Chlopam 0.25 μg/mL): 0.5 µg/mL
- MIC of antibiotic in combination with Chlopam ([1]; Chlopam 0.5 μg/mL): 0.25 µg/mL
- MIC of antibiotic in combination with Ramizol ([1]; Ramizol 0.015625 μg/mL): 4 µg/mL
- MIC of antibiotic in combination with Ramizol ([1]; Ramizol 0.03125 μg/mL): 4 µg/mL
- MIC of antibiotic in combination with Ramizol ([1]; Ramizol 0.0625 μg/mL): 4 µg/mL
- MIC of antibiotic in combination with Ramizol ([1]; Ramizol 0.125 μg/mL): 4 µg/mL
- MIC of antibiotic in combination with Ramizol ([1]; Ramizol 0.25 μg/mL): 4 µg/mL
- MIC [1, 12]: 2 µg/mL
- MIC [1, 13]: 4 µg/mL
- MIC of antibiotic in combination with Chlopam [2, 15]: 1 µg/mL
- MIC of antibiotic in combination with Chlopam [2, 17]: 1 µg/mL
- MIC of antibiotic in combination with Chlopam [2, 19]: 1 µg/mL
- MIC of antibiotic in combination with Chlopam [2, 21]: 1 µg/mL
- MIC of antibiotic in combination with Ramizol [2, 23]: 1 µg/mL
- MIC of antibiotic in combination with Ramizol [2, 25]: 1 µg/mL
- MIC of antibiotic in combination with Ramizol [2, 27]: 1 µg/mL
- MIC of antibiotic in combination with Ramizol [2, 29]: 1 µg/mL
- MIC ([2]; S. aureus ATCC BAA-1717): 1 µg/mL
- MIC of antibiotic alone ([2]; Table 7, checkerboard series with Ramizol, S. aureus ATCC BAA-1717): 1 µg/mL
SMILES: CC(=O)NC[C@H]1CN(c2ccc(N3CCOCC3)c(F)c2)C(=O)O1 [Linezolid]
- FICI of combination with Chlopam [1, 3]: 1.0
- FICI of combination with Chlopam [1, 4]: 1.0
- FICI of combination with Chlopam [1, 5]: 1.0
- FICI of combination with Chlopam ([1]; Chlopam 0.125 μg/mL + labelled antibiotic at MIC of same line): 0.8
- FICI of combination with Chlopam [1, 6]: 0.8
- FICI of combination with Chlopam ([1]; Chlopam 0.5 μg/mL + labelled antibiotic at MIC of same cell): 0.6
- Effect of individual antibiotic combinations ([1]; Chlopam and Linezolid: 0.003901 and 2, 0.0078125 and 2, 0.015625 and 2, 0.125 and 1, 0.25 and 0.5, 0.5 and 0.25 μg/mL): additive effect
- FICI of combination with Ramizol [1, 7]: 1.0
- FICI of combination with Ramizol [1, 8]: 1.0
- FICI of combination with Ramizol [1, 9]: 1.0
- FICI of combination with Ramizol [1, 10]: 1.0
- FICI of combination with Ramizol [1, 11]: 1.0
- Effect of individual antibiotic combinations ([1]; Ramizol and linezolid: 0.015625 and 4, 0.03125 and 4, 0.0625 and 4, 0.125 and 4, 0.25 and 4 μg/mL): additive effect
- Effect of the combinations with Chlopam (by mean FICI) ([1]; labelled antibiotic + Chlopam): additive effect
- mean FICI of combination with Chlopam ([1]; labelled antibiotic + Chlopam): 0.9
- mean FICI of combination with Ramizol [1]: 1.1
- FICI of combination with Chlopam [2, 14]: 1.0
- FICI of combination with Chlopam [2, 16]: 1.0
- FICI of combination with Chlopam [2, 18]: 1.0
- FICI of combination with Chlopam [2, 20]: 1.0
- Effect of individual antibiotic combinations ([2]; Chlopam and Linezolid: 0.001953 and 1, 0.003901 and 1, 0.0078125 and 1, 0.015625 and 1 μg/mL): additive effect
- FICI of combination with Ramizol [2, 22]: 1.0
- FICI of combination with Ramizol [2, 24]: 1.0
- FICI of combination with Ramizol [2, 26]: 1.0
- FICI of combination with Ramizol [2, 28]: 1.0
- Effect of individual antibiotic combinations ([2]; Ramizol and linezolid: 0.015625 and 1, 0.03125 and 1, 0.0625 and 1, 0.125 and 1 μg/mL): additive effect
- mean FICI of combination with Chlopam ([2]; S. aureus ATCC BAA-1717): 1.2
- mean FICI of combination with Ramizol ([2]; S. aureus ATCC BAA-1717): 1.2
